This note sets out measurements from US10174035B2, “6-morpholinyl-2-pyrazolyl-9H-purine derivatives and their use as PI3K inhibitors” (Daiichi Sankyo Company, Limited, priority 2015, dated 2019).

Read-outs that look alike come from different tables or passages of the source.

One assay deals with PI3Kα (Homo sapiens (Human), UniProt P42336). The experiment in a line: In vitro enzyme assay (Kinase-Glo), selectivity, PI3Kα. Particulars: enzyme 2.29 μg/mL; ATP 10 μM; PIP2 60 μM; 2 hours. It counts as biochemical. On the procedure: (§1) The Kinase-Glo luminescent kinase assay kit (from Promega) was used to measure kinase activity. In this assay, amount of ATP remaining in solution following a kinase reaction is measured. The effect of compounds on PI3Kδ inhibition was carried out by adding 2.29 μg/ml of recombinant PI3K δ enzyme (Proteros, Germany) to reaction mixture containing assay buffer (50 mM HEPES, pH 7.4, 50 mM NaCl, 0.05% CHAPS) supplemented with 10 mM MgCl2, 5 mM DTT, 60 μM Phosphatidyl inositol bisphosphate (PIP2) and 10 μM ATP in the absence or presence of different concentrations of the compounds in a final volume of 15 μl/well, in a 384 well plate. The reaction mixture was incubated for 2 hours at room temperature. At the end of incubation period the equal volume of Kinase-Glo plus (Promega, V3772), was added per well and the luminescence was measured after incubating for 10 minutes at room temperature in dark. Results were calculated by measuring the luminescence units of test samples to blanks containing no enzyme.
Sequence of PI3Kα (P42336 whole entry, species assumed): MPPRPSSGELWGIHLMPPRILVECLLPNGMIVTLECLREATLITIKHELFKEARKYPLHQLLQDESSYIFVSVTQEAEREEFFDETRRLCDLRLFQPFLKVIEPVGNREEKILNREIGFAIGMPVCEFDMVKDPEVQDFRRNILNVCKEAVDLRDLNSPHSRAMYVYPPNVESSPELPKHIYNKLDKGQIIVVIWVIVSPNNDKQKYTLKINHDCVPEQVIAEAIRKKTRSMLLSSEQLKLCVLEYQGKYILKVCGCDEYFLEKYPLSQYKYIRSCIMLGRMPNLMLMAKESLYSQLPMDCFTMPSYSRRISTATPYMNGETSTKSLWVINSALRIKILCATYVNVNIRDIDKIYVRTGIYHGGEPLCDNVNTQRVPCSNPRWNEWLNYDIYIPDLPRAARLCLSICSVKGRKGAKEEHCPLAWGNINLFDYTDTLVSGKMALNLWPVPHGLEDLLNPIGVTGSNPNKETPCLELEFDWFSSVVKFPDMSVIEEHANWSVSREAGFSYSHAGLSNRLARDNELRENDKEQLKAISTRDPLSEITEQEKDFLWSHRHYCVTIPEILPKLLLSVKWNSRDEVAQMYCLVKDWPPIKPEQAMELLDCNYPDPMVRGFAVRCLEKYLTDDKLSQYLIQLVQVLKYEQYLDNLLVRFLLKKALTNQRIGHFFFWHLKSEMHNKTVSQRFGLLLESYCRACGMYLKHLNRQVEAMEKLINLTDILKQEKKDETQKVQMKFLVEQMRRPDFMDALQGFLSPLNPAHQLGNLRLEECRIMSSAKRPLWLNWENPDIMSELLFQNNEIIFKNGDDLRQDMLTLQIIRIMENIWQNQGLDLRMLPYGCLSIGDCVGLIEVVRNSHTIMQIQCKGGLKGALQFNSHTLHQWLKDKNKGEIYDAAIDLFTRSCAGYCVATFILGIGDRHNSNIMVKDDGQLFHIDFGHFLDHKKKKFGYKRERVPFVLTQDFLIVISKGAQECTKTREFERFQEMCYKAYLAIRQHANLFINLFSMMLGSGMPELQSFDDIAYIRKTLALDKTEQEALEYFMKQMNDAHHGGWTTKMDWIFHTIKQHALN
Sequence of PI3Kα (P27986 whole entry partner, species assumed): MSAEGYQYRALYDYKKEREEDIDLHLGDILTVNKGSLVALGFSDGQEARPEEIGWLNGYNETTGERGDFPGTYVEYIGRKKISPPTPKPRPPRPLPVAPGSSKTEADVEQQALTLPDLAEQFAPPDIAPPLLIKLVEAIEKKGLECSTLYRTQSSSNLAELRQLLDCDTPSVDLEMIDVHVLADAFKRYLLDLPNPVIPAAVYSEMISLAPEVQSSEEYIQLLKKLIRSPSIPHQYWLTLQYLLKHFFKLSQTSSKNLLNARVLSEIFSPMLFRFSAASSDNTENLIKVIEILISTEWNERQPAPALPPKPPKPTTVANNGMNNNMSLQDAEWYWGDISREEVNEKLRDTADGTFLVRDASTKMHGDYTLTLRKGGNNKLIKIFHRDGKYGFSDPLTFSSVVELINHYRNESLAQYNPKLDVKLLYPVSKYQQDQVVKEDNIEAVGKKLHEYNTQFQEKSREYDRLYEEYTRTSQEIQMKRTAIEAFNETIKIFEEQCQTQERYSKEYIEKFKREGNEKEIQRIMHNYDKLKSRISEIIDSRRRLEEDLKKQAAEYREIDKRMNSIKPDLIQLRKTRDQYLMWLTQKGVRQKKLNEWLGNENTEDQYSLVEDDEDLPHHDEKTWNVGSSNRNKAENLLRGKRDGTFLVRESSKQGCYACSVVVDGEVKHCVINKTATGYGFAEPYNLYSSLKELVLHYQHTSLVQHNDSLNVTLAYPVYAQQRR
(§2) The compounds of the present invention were tested for their selectivity for PI3Kδ over PI3Kα, PI3Kβ and PI3Kγ following the above assay using specific recombinant enzymes (Proteros, Germany) for each kinase. Assay condition of kinase assay (PI3Kα, PI3Kβ, PI3Kγ and PI3Kδ) was as follows. Enzyme: 2.29 μg/mL; ATP: 10 μM; PIP2 substrate: 60 μM and Reaction Time: 2 hours.
(Kinase-Glo measures the ATP left after a reaction by luminescence.)

In another assay the target is PI3Kβ (Homo sapiens (Human), UniProt P42338). The experiment in a line: In vitro enzyme assay (Kinase-Glo), selectivity, PI3Kβ. It counts as biochemical. Particulars: enzyme 2.29 μg/mL; ATP 10 μM; PIP2 60 μM; 2 hours. On the procedure: as §1, §2
Sequence of PI3Kβ (P42338 whole entry, species assumed): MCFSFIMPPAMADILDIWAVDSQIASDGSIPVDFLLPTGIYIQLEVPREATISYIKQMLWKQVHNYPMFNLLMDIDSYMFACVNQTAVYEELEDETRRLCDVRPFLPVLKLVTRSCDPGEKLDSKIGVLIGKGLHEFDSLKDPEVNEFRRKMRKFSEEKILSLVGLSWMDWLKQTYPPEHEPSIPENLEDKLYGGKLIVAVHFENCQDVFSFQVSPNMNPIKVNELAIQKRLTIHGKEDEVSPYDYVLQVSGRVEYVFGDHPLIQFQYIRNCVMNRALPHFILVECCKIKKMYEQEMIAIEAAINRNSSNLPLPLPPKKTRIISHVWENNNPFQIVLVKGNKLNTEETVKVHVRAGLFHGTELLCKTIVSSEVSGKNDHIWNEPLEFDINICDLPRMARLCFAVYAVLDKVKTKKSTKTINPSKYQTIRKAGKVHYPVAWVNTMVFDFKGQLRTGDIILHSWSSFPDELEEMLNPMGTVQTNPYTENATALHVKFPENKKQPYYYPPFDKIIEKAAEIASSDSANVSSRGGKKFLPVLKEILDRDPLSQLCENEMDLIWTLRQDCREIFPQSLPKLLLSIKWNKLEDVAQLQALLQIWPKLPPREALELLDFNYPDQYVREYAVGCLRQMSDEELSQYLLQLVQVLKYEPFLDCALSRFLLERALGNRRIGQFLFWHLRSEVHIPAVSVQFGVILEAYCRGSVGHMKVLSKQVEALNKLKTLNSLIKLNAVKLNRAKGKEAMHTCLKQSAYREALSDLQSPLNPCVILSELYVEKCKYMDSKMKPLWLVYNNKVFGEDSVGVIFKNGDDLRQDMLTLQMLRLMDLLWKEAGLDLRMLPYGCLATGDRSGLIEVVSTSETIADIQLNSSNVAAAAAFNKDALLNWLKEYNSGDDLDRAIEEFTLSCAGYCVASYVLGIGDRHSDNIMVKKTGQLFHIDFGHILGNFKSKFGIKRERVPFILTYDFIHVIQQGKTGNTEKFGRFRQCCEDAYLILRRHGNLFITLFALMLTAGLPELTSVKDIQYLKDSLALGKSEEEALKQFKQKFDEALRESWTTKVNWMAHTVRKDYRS
Sequence of PI3Kβ (P27986 whole entry partner, species assumed): as the sequence (P27986 whole entry partner, species assumed) above
A further assay concerns the target PI3Kγ (Homo sapiens (Human), UniProt P48736). The experiment in a line: In vitro enzyme assay (Kinase-Glo), selectivity, PI3Kγ. Particulars: enzyme 2.29 μg/mL; ATP 10 μM; PIP2 60 μM; 2 hours. It counts as biochemical. On the procedure:
The Kinase-Glo luminescent kinase assay kit (from Promega) was used to measure kinase activity. In this assay, amount of ATP remaining in solution following a kinase reaction is measured. […] The reaction mixture was incubated for 2 hours at room temperature. At the end of incubation period the equal volume of Kinase-Glo plus (Promega, V3772), was added per well and the luminescence was measured after incubating for 10 minutes at room temperature in dark. Results were calculated by measuring the luminescence units of test samples to blanks containing no enzyme.
The compounds of the present invention were tested for their selectivity for PI3Kδ over PI3Kα, PI3Kβ and PI3Kγ following the above assay using specific recombinant enzymes (Proteros, Germany) for each kinase. Assay condition of kinase assay (PI3Kα, PI3Kβ, PI3Kγ and PI3Kδ) was as follows.

Assay [1] relates to IFN-γ release in mouse splenocytes. The experiment in a line: Phytohaemagglutinin (PHA)-induced interferon (IFN)-gamma release in mouse splenocytes. Also noted: species or system C57BL/6 mouse. Particulars: Splenocyte, PHA (10 μg/ml) for 48 hours, IFN-γ by ELISA, read-out: Cell Based IC50. On the procedure:
Effect of compounds on mitogen-induced IFN-γ release in mouse splenocytes was used to evaluate their potency in cell-based assay system [Blood (2010) 115: 2203-2213; Current Protocols in Immunology (2004) 3.12.1-3.12.20].
Mouse splenocytes were obtained from the spleen of a C57BL/6 mouse and plated at a density of 0.25 million cells/well in a 96 well tissue culture plate. The effect of the compounds to inhibit IFN-γ release was evaluated by treating the splenocytes with various concentrations of the test compounds followed by stimulation with PHA (10 μg/ml) for 48 hours. The IFN-γ release in the cell culture supernatant was quantified by ELISA as per the manufacturer's protocol (BD Biosciences, #555138).
A general note: An ELISA detects its analyte on a solid surface through an enzyme-linked reagent.

Assay [2] has as its target recombinant PI3K δ enzyme (Homo sapiens (Human), UniProt O00329). The experiment in a line: In vitro enzyme assay (Kinase-Glo luminescent kinase assay), PI3Kδ. It counts as biochemical. In a few lines: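 Each recombinant human PI3K isoform at 2.29 μg/mL with 60 μM PIP2 and 10 μM ATP in HEPES pH 7.4, NaCl, CHAPS, MgCl2, DTT, 2 hours at room temperature. Remaining ATP read by Kinase-Glo luminescence relative to no-enzyme blanks.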

[3] abbreviates: enzyme 2.29 μg/mL, ATP 10 μM, PIP2 60 μM, 2 hours.

Sequence of PI3Kγ (P48736 whole entry, species assumed): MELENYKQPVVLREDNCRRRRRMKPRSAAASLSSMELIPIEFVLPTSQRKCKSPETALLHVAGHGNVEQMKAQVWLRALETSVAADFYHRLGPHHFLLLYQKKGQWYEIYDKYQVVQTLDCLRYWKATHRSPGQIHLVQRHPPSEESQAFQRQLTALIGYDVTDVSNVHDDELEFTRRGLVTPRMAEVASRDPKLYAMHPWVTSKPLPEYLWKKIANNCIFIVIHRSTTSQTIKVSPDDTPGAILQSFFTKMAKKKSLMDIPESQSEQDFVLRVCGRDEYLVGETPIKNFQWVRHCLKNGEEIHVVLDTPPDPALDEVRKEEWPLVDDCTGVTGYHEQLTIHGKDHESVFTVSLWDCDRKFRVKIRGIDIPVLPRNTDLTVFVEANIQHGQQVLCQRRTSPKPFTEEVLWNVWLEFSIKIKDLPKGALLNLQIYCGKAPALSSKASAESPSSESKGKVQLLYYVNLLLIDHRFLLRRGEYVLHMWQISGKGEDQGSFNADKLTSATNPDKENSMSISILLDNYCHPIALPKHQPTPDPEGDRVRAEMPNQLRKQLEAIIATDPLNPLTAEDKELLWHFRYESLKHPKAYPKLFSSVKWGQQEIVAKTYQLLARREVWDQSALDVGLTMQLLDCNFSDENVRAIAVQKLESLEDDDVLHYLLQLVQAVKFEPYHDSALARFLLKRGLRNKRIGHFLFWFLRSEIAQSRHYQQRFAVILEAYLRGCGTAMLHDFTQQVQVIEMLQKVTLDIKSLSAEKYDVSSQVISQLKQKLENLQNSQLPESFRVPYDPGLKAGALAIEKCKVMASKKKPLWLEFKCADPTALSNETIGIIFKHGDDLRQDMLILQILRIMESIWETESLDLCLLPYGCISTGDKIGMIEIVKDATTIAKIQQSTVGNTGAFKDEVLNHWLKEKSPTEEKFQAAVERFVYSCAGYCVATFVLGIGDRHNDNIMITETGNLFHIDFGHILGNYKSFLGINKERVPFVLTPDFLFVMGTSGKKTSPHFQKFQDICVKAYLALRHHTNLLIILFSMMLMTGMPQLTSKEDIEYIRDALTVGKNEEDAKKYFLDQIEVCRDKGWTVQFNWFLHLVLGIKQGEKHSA
Sequence of recombinant PI3K δ enzyme (O00329 whole entry, species assumed, canonical isoform): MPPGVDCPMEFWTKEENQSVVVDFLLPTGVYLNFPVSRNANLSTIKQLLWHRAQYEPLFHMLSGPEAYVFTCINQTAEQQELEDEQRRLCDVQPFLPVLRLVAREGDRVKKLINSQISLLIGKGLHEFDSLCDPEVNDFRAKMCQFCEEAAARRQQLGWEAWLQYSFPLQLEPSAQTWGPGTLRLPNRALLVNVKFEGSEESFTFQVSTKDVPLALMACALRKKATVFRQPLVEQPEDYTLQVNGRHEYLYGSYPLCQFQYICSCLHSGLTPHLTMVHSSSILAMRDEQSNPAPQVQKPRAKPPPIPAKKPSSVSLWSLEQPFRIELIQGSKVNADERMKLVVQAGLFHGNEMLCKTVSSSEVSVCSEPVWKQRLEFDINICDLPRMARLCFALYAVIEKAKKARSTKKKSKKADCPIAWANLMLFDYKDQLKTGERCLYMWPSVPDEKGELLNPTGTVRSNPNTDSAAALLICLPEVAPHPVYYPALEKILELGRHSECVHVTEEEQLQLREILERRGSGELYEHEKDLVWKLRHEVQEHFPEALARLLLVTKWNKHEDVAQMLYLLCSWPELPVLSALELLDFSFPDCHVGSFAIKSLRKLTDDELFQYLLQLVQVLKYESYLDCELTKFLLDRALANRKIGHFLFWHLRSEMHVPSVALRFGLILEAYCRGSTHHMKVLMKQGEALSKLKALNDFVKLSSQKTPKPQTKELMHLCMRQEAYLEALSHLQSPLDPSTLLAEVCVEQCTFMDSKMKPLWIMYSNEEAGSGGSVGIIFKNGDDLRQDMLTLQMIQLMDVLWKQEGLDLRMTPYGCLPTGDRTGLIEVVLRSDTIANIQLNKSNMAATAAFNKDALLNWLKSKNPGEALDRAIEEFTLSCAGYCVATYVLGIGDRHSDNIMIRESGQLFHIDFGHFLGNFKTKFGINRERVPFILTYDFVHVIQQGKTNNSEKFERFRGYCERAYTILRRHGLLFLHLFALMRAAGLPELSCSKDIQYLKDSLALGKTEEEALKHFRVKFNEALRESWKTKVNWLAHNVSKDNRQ
Sequence of recombinant PI3K δ enzyme (P27986 whole entry partner, species assumed, canonical isoform): as the sequence (P27986 whole entry partner, species assumed) above

Usually IC50 stands for the concentration that inhibits the measured activity by half. `Cc1nn(C)cc1-c1cc(N2CCOCC2)c2nc(C(=O)N3CCC(N4C[C@@H](C)O[C@@H](C)C4)CC3)[nH]c2n1` [compound 113, {4-[cis-2,6-Dimethylmorpholin-4-yl]piperidin-1-yl}[5-(1,3-dimethyl-1H-pyrazol-4-yl)-7-(morpholin-4-yl)-3H-imidazo[4,5-b]pyridin-2-yl]methanone]: the IC50 on PI3Kα is > 1000 nM; at PI3Kβ, 1150 nM; against PI3Kγ it was > 1000 nM; in assay [1] it was 7 nM.

As to `Cn1cc(-c2nc(N3CCOCC3)c3nc(C(=O)NCCCN4CCCC4=O)[nH]c3n2)cn1` [compound 68, 2-(1-Methyl-1H-pyrazol-4-yl)-6-(morpholin-4-yl)-N-[3-(2-oxopyrrolidin-1-yl)propyl]-9H-purine-8-carboxamide], the IC50 in assay [2] is 17 nM; in assay [2] (setting [3]), 17 nM; on PI3Kα it was > 1000 nM; against PI3Kβ, > 10000 nM; against PI3Kγ, > 1000 nM; in assay [1], 296 nM.

With `Cn1cc(-c2nc3[nH]c(C(=O)N4CCN(C(C)(C)C(N)=O)CC4)nc3c(N3CCOCC3)c2F)cn1` [compound 82, 2-(4-{[6-Fluoro-5-(1-methyl-1H-pyrazol-4-yl)-7-(morpholin-4-yl)-3H-imidazo[4,5-b]pyridin-2-yl]carbonyl}piperazin-1-yl)-2-methylpropanamide], the IC50 in assay [2] is 11 nM; in assay [2] (setting [3]), 11 nM; on PI3Kα, > 1000 nM; against PI3Kβ it was > 10000 nM; against PI3Kγ, > 1000 nM; in assay [1], 346 nM.

As to `Cn1cc(-c2cc(N3CCOCC3)c3nc(C(=O)NCCCN4CCCC4=O)[nH]c3n2)cn1` [compound 116, 5-(1-Methyl-1H-pyrazol-4-yl)-7-(morpholin-4-yl)-N-[3-(2-oxopyrrolidin-1-yl)propyl]-3H-imidazo[4,5-b]pyridine-2-carboxamide], in assay [1], the IC50 was 72 nM.

In the case of `Cc1nn(C)cc1-c1nc(N2CCOCC2)c2nc(C(=O)N3CCN(C(C)(C)C(N)=O)CC3)[nH]c2n1` [compound 8, 2-(4-{[2-(1,3-Dimethyl-1H-pyrazol-4-yl)-6-(morpholin-4-yl)-9H-purin-8-yl]carbonyl}piperazin-1-yl)-2-methylpropanamide], the IC50 in assay [2] is 10 nM; in assay [2] (setting [3]), 10 nM; against PI3Kα, 6480 nM; on PI3Kβ, > 1000 nM; on PI3Kγ it was 6540 nM; in assay [1], 422 nM.

Take `Cn1cc(-c2nc3[nH]c(C(=O)N4CCC5(CC4)COC5)nc3c(N3CCOCC3)c2F)cn1` [compound 79, [6-Fluoro-5-(1-methyl-1H-pyrazol-4-yl)-7-(morpholin-4-yl)-3H-imidazo[4,5-b]pyridin-2-yl](2-oxa-7-azaspiro[3.5]non-7-yl)methanone]: the IC50 in assay [2] is 20 nM; in assay [2] (setting [3]) it was 20 nM; against PI3Kα it was > 1000 nM; on PI3Kβ, > 10000 nM; against PI3Kγ, > 1000 nM; in assay [1] it was 13 nM.

With `O=C(c1nc2c(N3CCOCC3)nc(-c3cn[nH]c3)nc2[nH]1)N1CCC2(CC1)COC2` [compound 72, [6-(Morpholin-4-yl)-2-(1H-pyrazol-4-yl)-9H-purin-8-yl](2-oxa-7-azaspiro[3.5]non-7-yl)methanone], the IC50 in assay [2] was 18 nM; in assay [2] (setting [3]), 18 nM; against PI3Kα, > 1000 nM; at PI3Kβ, > 10000 nM; against PI3Kγ it was > 1000 nM; in assay [1], 333 nM.

Consider `Cn1cc(-c2nc(N3CCOCC3)c3nc(C(=O)N4CCN(C(C)(C)C(N)=O)CC4)[nH]c3n2)cn1` [compound 10, 2-Methyl-2-(4-{[2-(1-methyl-1H-pyrazol-4-yl)-6-(morpholin-4-yl)-9H-purin-8-yl]carbonyl}piperazin-1-yl)propanamide], for which the 50% inhibitory concentration (IC50) in assay [1] was determined as 270 nM.

`Cc1n[nH]c(C)c1-c1nc(N2CCOCC2)c2nc(C(=O)N3CCC(N4CCOCC4)CC3)[nH]c2n1` [compound 16, [2-(3,5-Dimethyl-1H-pyrazol-4-yl)-6-(morpholin-4-yl)-9H-purin-8-yl][4-(morpholin-4-yl)piperidin-1-yl]methanone]: the IC50 in assay [2] came to 88 nM.

For `C[C@@H]1CN(C2CCN(C(=O)c3nc4c(N5CCOCC5)nc(-c5cn[nH]c5)nc4[nH]3)CC2)C[C@H](C)O1` [compound 65, {4-[cis-2,6-Dimethylmorpholin-4-yl]piperidin-1-yl}[6-(morpholin-4-yl)-2-(1H-pyrazol-4-yl)-9H-purin-8-yl]methanone], the IC50 against PI3Kα was 986 nM; on PI3Kβ it was > 10000 nM; at PI3Kγ, 9770 nM; in assay [1] it was 79 nM.

For the molecule `Cn1cc(-c2nc(N3CCOCC3)c3nc(C(=O)NC4CCCCC4)[nH]c3n2)cn1` [compound 33, N-cyclohexyl-2-(1-methyl-1H-pyrazol-4-yl)-6-(morpholin-4-yl)-9H-purine-8-carboxamide], the IC50 in assay [2] turned out to be 366 nM.

Turning to `Cn1cc(-c2cc(N3CCOCC3)c3nc(C(=O)NCCN4CCOCC4)[nH]c3n2)cn1` [compound 103, 5-(1-Methyl-1H-pyrazol-4-yl)-7-(morpholin-4-yl)-N-[2-(morpholin-4-yl)ethyl]-3H-imidazo[4,5-b]pyridine-2-carboxamide], the IC50 in assay [2] amounted to 147 nM.

As to `Cn1cc(-c2nc(N3CCOCC3)c3nc(C(=O)N4CCn5ccnc5C4)[nH]c3n2)cn1` [compound 30, 5,6-Dihydroimidazo[1,2-a]pyrazin-7(8H)-yl[2-(1-methyl-1H-pyrazol-4-yl)-6-(morpholin-4-yl)-9H-purin-8-yl]methanone], the IC50 in assay [2] is 627 nM.

For `Cn1cc(-c2nc3[nH]c(C(=O)N4CCC(N5CCOCC5)CC4)nc3c(N3CCOCC3)c2Cl)cn1` [compound 92, [6-Chloro-5-(1-methyl-1H-pyrazol-4-yl)-7-(morpholin-4-yl)-3H-imidazo[4,5-b]pyridin-2-yl][4-(morpholin-4-yl)piperidin-1-yl]methanone], the IC50 in assay [2] stood at 163 nM.

For the molecule `Cc1nn(C)c(C)c1-c1nc2[nH]c(C(=O)N3CCC(N4CCOCC4)CC3)nc2c(N2CCOCC2)c1C` [compound 88, [6-Methyl-7-(morpholin-4-yl)-5-(1,3,5-trimethyl-1H-pyrazol-4-yl)-3H-imidazo[4,5-b]pyridin-2-yl][4-(morpholin-4-yl)piperidin-1-yl]methanone], the IC50 in assay [2] amounted to 365 nM.

Regarding `Cn1cc(-c2nc(N3CCOCC3)c3nc(C(=O)N4CCC(c5ccccc5)CC4)[nH]c3n2)cn1` [compound 35, [2-(1-Methyl-1H-pyrazol-4-yl)-6-(morpholin-4-yl)-9H-purin-8-yl](4-phenylpiperidin-1-yl)methanone], the IC50 in assay [2] was 17 nM.

Consider `Cn1cc(-c2nc(N3CCOCC3)c3nc(C(=O)NCCc4cccnc4)[nH]c3n2)cn1` [compound 1, 2-(1-Methyl-1H-pyrazol-4-yl)-6-(morpholin-4-yl)-N-[2-(pyridin-3-yl)ethyl]-9H-purine-8-carboxamide], for which the IC50 in assay [2] amounted to 61 nM.

In the case of `Cn1cc(-c2nc(N3CCOCC3)c3nc(C(=O)N4CCC[C@H](N5CCOCC5)C4)[nH]c3n2)cn1` [compound 13, [2-(1-Methyl-1H-pyrazol-4-yl)-6-(morpholin-4-yl)-9H-purin-8-yl][(3S)-3-(morpholin-4-yl)piperidin-1-yl]methanone], the IC50 in assay [2] was determined as 88 nM.

As to `O=C(c1nc2c(N3CCOCC3)nc(-c3cn[nH]c3)nc2[nH]1)N1CCC(N2CCOCC2=O)CC1` [compound 74, 4-(1-{[6-(Morpholin-4-yl)-2-(1H-pyrazol-4-yl)-9H-purin-8-yl]carbonyl}piperidin-4-yl)morpholin-3-one], in assay [2], the IC50 came out at 8 nM.
